Assay results as given in patent publication US20100009935A1, “RESISTANCE-REPELLENT […] INHIBITORS” (priority 2002, published 2010).
Like-named read-outs stand apart in the source and are kept apart here.

Assays:
Type in all cases: cell-based
[1] = system: HIV-1 clinical isolate 4; test: PI sensitivity of PI-resistant clinical isolate 4 in PHA-PBMC, p24; conditions: for IC50: isolate 4: L10I, V11I, T12E, I15V, L19I, B41K, H46L, L63P, A71T, V82A, L90M, PHA-PBMC, p24; for FOLD CHANGE of IC50: isolate 4 compared to HIV-1wt (HIV-1ERS104pre)
[2] = system: HIV-1 clinical isolate 3; test: PI sensitivity of PI-resistant clinical isolate 3 in PHA-PBMC, p24; conditions: for IC50: isolate 3: L10I, I15V, E35D, N37E, K45R, I54V, L63P, A71V, V82I, L90N, I93L, C95F, PHA-PBMC, p24; for FOLD CHANGE of IC50: isolate 3 compared to HIV-1wt (HIV-1ERS104pre)
[3] = system: HIV-1UIC-P62; test: PI sensitivity of compound 1-selected HIV-1UIC-P62 in MT-2 cells, MTT assay; conditions: HIV-1UIC-P62 (L10F, A28S, M46I, I50V, A71V, N88D), day 7
[4] = system: HIV-1 clinical isolate 5; test: PI sensitivity of PI-resistant clinical isolate 5 in PHA-PBMC, p24; conditions: for IC50: isolate 5: L10I, K43T, N46L, I54L, L63P, A71T, V82A, L90N, D92K, PHA-PBMC, p24; for FOLD CHANGE of IC50: isolate 5 compared to HIV-1wt (HIV-1ERS104pre)
[5] = system: HIV-1 clinical isolate 7; test: PI sensitivity of PI-resistant clinical isolate 7 in PHA-PBMC, p24; conditions: for IC50: Human immunodeficiency virus 1, isolate 7: L10I, L24I, L33F, E35D, H36I, H37S, N46L, I54V, R57K, I62V, L63P, A71V, G73S, V82A, PHA-PBMC, p24; for FOLD CHANGE of IC50: isolate 7 compared to HIV-1wt (HIV-1ERS104pre)
[6] = system: HIV-1 clinical isolate 2; test: PI sensitivity of PI-resistant clinical isolate 2 in PHA-PBMC, p24; conditions: for IC50: isolate 2: L10I, I15V, K20R, N36I, H46L, I54V, K55R, I62V, L63P, K70D, V82A, L89N, PHA-PBMC, p24; for FOLD CHANGE of IC50: isolate 2 compared to HIV-1wt (HIV-1ERS104pre)
[7] = system: HIV-1LAI; test: microbe, parasite or virus in culture; conditions: day 7, read-out: MEAN IC50 (μM) ± SDs
Description: (§1) The sensitivities of HIV-1LAI, HIV-1Ba-L, HIV-2EHO and the primary HIV-1 isolates against various drugs were determined as previously described with minor modifications (Shiraska et al., Proc. Natl. Acad. Sci. USA, 92, 2398-2402 (1995)).

[8] = system: HIV-1Ba-L; test: microbe, parasite or virus in culture; conditions: Human immunodeficiency virus 1, 168 h, PBNC (PHA-PBMC), p24 production, day 7, read-out: MEAN IC50 (μM) ± SDs
Description: as §1

[9] = system: HIV-1ERS104pre (wild-type clinical strain); test: PI sensitivity of wild-type clinical isolate in PHA-PBMC, p24; conditions: for FOLD CHANGE of IC50: wild type HIV-1ERS104pre, reference (=1)
[10] = system: highly cross-resistant HIV-1 strains derived from AIDS patients
[11] = system: HIV-1 clinical isolate 8; test: PI sensitivity of PI-resistant clinical isolate 8 in PHA-PBMC, p24; conditions: for IC50: isolate 8: L10R, H37D, N46I, I62V, L63P, A71V, G73S, V77I, V82T, L90M, I93L, PHA-PBMC, p24; for FOLD CHANGE of IC50: isolate 8 compared to HIV-1wt (HIV-1ERS104pre)
[12] = system: HIV-2EHO; test: Drug sensitivity of HIV-2EHO in MT-2 cells, MTT assay; conditions: HT-2 (footnote: MT-2 cells), day 7, read-out: MEAN IC50 (μM) ± SDs
Description: as §1

[13] = system: HIV-1APV-P30; test: PI sensitivity of APV-selected HIV-1APV-P30 in MT-2 cells, MTT assay; conditions: for FOLD CHANGE of IC50: HIV-1APV-P30 compared to HIV-1NL4-3 (wild type)
[14] = system: HIV-1 clinical isolate 1; test: PI sensitivity of PI-resistant clinical isolate 1 in PHA-PBMC, p24; conditions: for IC50: Human immunodeficiency virus 1, isolate 1: L10I, K14R, L33I, N36I, H46I, F53L, K55R, I62V, L63P, A71V, G73S, V82A, L90M, I93L, PHA-PBMC, p24; for FOLD CHANGE of IC50: isolate 1 compared to HIV-1wt (HIV-1ERS104pre)
[15] = system: HIV-1NL4-3; conditions: for IC50: Human immunodeficiency virus 1, MT2, 168 h, HIV-1NL4-3 (wild type), MT-2 cells, MTT assay, day 7; for FOLD CHANGE of IC50: HIV-1NL4-3, reference (=1)
[16] = system: HIV-1 clinical isolate 6; test: PI sensitivity of PI-resistant clinical isolate 6 in PHA-PBMC, p24; conditions: for IC50: Human immunodeficiency virus 1, isolate 6: L10I, K14R, B41K, H46L, I54V, L63P, A71V, V82A, L90M, I93L, PHA-PBMC, p24; for FOLD CHANGE of IC50: isolate 6 compared to HIV-1wt (HIV-1ERS104pre)
[17] = Human immunodeficiency virus 1, MT2, 168 h
[18] = Human immunodeficiency virus 1, 168 h, PBMC (PHA-PBMC), p24 production
[19] = Human immunodeficiency virus 1, MT2, 168 h, HT-2 (footnote: MT-2 cells), MTT assay
[20] = Human immunodeficiency virus 1, read-out: IC50 μM
[21] = multidrug resistant patient isolates
[22] = Human immunodeficiency virus 2, MT2, 168 h

SMILES | IC50 ([1]; Human immunodeficiency virus 1) | IC50 ([2]; Human immunodeficiency virus 1) | IC50 [3, 17] | IC50 ([4]; Human immunodeficiency virus 1) | IC50 [5] | IC50 ([6]; Human immunodeficiency virus 1) | IC50 [7, 18] | IC50 [7, 19] | IC50 [8] | IC50 [9, 20] | antiviral activity against patient isolates with multiple mutations compared with wild type HIV strains (in words) [10, 21] | IC50 ([11]; Human immunodeficiency virus 1) | IC50 [12, 22] | IC50 [13, 17] | IC50 [14] | IC50 [15] | IC50 [16] | also measured
CC(C)CN(C[C@@H](O)[C@H](Cc1ccccc1)NC(=O)O[C@H]1CCOC1)S(=O)(=O)c1ccc(N)cc1 [APV, Amprenavir] | 310 nM | 260 nM | 830 nM | 670 nM | 490 nM | 280 nM | 0.017 ± 0.003 µM | 0.041 ± 0.01 µM | 0.023 ± 0.009 µM | 0.025 µM | much less effective | 150 nM | 0.53 ± 0.03 µM | > 1000 nM | 270 nM | 42 nM | 160 nM | 
Cc1cn([C@H]2C[C@H](N=[N+]=[N-])[C@@H](CO)O2)c(=O)[nH]c1=O [AZT, 3′-azido-2′,3′-dideoxythymidine] |  |  |  |  |  |  | 0.003 ± 0.0002 µM | 0.024 ± 0.003 µM | 0.011 ± 0.007 µM |  |  |  | 0.003 ± 0.001 µM |  |  |  |  | 
Nc1ccn([C@@H]2CS[C@H](CO)O2)c(=O)n1 [Compound 3TC, LAMIVUDINE] |  |  |  |  |  |  | 0.021 ± 0.018 µM | 0.66 ± 0.01 µM | 0.054 ± 0.046 µM |  |  |  | 0.4 ± 0.25 µM |  |  |  |  | 
CC(C)(C)NC(=O)[C@@H]1CN(Cc2cccnc2)CCN1C[C@@H](O)C[C@@H](Cc1ccccc1)C(=O)N[C@H]1c2ccccc2C[C@H]1O [IDV, Indinavir] | 210 nM | 490 nM | 80 nM | > 1000 nM | > 1000 nM | 490 nM | 0.015 ± 0.004 µM | 0.019 ± 0.009 µM | 0.017 ± 0.011 µM | 0.013 µM |  | 550 nM | 0.01 ± 0.004 µM | 320 nM | > 1000 nM | 11 nM | 300 nM | FOLD CHANGE of IC50 [1]: (16) fold; FOLD CHANGE of IC50 [2]: (38) fold; FOLD CHANGE of IC50 [4]: (>77) fold; FOLD CHANGE of IC50 [5]: (>77) fold; FOLD CHANGE of IC50 [6]: (38) fold; FOLD CHANGE of IC50 [9]: (1) fold; antiviral activity against patient isolates with multiple mutations compared with wild type HIV strains (in words) [10]: dramatically less potent; FOLD CHANGE of IC50 [11]: (42) fold; FOLD CHANGE of IC50 [13]: (30) fold; FOLD CHANGE of IC50 [14]: (>77) fold; FOLD CHANGE of IC50 [15]: (1) fold; FOLD CHANGE of IC50 [16]: (23) fold
Cc1c(O)cccc1C(=O)N[C@@H](CSc1ccccc1)[C@H](O)CN1C[C@H]2CCCC[C@H]2C[C@H]1C(=O)NC(C)(C)C [NFV, Nelfinavir] | 90 nM | > 1000 nM | 110 nM | 410 nM | > 1000 nM | 330 nM | 0.009 ± 0.0003 µM | 0.005 ± 0.002 µM |  | 0.023 µM | dramatically less potent | > 1000 nM | 0.02 ± 0.01 µM | > 1000 nM | > 1000 nM | 23 nM | > 1000 nM | 
CC(C)c1nc(CN(C)C(=O)N[C@H](C(=O)N[C@@H](Cc2ccccc2)C[C@H](O)[C@H](Cc2ccccc2)NC(=O)OCc2cncs2)C(C)C)cs1 [RTV, Ritonavir] | > 1000 nM | > 1000 nM | 55 nM | > 1000 nM | > 1000 nM | > 1000 nM | 0.04 ± 0.008 µM | 0.041 ± 0.005 µM | 0.038 ± 0.02 µM | 0.044 µM | dramatically less potent | > 1000 nM | 0.35 ± 0.025 µM | > 1000 nM | > 1000 nM | 38 nM | > 1000 nM | FOLD CHANGE of IC50 [1]: (>23) fold; FOLD CHANGE of IC50 [2]: (>23) fold; FOLD CHANGE of IC50 [4]: (>23) fold; FOLD CHANGE of IC50 [5]: (>23) fold; FOLD CHANGE of IC50 [6]: (>23) fold; FOLD CHANGE of IC50 [9]: (1) fold; FOLD CHANGE of IC50 [11]: (>23) fold; FOLD CHANGE of IC50 [13]: (>26) fold; FOLD CHANGE of IC50 [14]: (>23) fold; FOLD CHANGE of IC50 [15]: (1) fold; FOLD CHANGE of IC50 [16]: (>23) fold
COc1ccc(S(=O)(=O)N(CC(C)C)C[C@@H](O)[C@H](Cc2ccccc2)NC(=O)O[C@H]2CO[C@H]3OCC[C@H]32)cc1 [UIC-94003] |  |  |  |  |  |  |  |  |  |  | equivalent |  |  |  |  |  |  | IC50 [1]: 1.6 nM; IC50 [2]: 1 nM; IC50 [3]: 21 nM; IC50 [4]: 2.4 nM; IC50 [6]: 1.3 nM; IC50 ([9]; wild type HIV-1ERS104pre (L63P), PHA-PBMC, p24, read-out: IC50): 0.0007 µM; IC50 ([10]; eight highly PI-resistant clinical isolates, PHA-PBMC, read-out: IC50 values, range over all eight isolates): 0.5 to 5.5 nM; IC50 [11]: 1 nM; IC50 [12]: 0.0005 ± 7e-05 µM; IC50 ([13]; HIV-1APV-P30 (L10F, V32I, M46I, I54M, A71V, I84V), MT-2 cells, MTT assay, day 7, read-out: IC50): 29 nM
OC[C@@H]1CC[C@H](n2cnc3c(O)ncnc32)O1 [ddI, 2′,3′-dideoxyinosine] |  |  |  |  |  |  | 0.62 ± 0.02 µM | 3.4 ± 0.2 µM | 1.5 ± 1.1 µM |  |  |  | 2.8 ± 0.6 µM |  |  |  |  | 
